Data set [1] in a line: Cytotoxicity against human MCF7 cells assessed as reduction in cell viability after 48 hrs by CCK8 assay. The note with it: MCF7, 48 h. It is filed as functional, cell-based.
Data set [2] has as its target Cyclin-dependent kinase 4 (Homo sapiens, UniProt P11802). Nature of the data set: Inhibition of CDK4 (unknown origin) using histone H1 as substrate after 10 mins in presence of [gamma32P]ATP.
The target in data set [3] is Cyclin-dependent kinase 6 (Homo sapiens, UniProt Q00534). The data set can be described thus: Inhibition of CDK6 (unknown origin) using histone H1 as substrate after 10 mins in presence of [gamma32P]ATP.
Cyclin-dependent kinase 6, sequence (Q00534 whole entry): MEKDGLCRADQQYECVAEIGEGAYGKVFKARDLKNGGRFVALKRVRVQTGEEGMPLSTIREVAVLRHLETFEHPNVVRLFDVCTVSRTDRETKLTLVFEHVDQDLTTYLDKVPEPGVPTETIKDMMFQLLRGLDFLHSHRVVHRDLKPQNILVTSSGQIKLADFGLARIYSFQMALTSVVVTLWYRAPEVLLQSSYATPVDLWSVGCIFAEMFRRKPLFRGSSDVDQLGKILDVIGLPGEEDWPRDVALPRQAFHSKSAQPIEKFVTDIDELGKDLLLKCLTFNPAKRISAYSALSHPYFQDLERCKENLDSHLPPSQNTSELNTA
The nature of data set [4]: Cytotoxicity against human MDA-MB-453 cells assessed as reduction in cell viability after 48 hrs by CCK8 assay. It is filed as functional, cell-based. The following applies: MDA-MB-453, 48 h. (Tetrazolium dyes change colour on reduction, which living cells bring about.)
A short description of data set [5]: Cytotoxicity against human MDA-MB-231 cells assessed as reduction in cell viability after 48 hrs by CCK8 assay. The following applies: MDA-MB-231, 48 h. It is filed as functional, cell-based.
Data set [6] concerns MCF7. The data set can be described thus: Antitumor activity against […] human MCF7 cells xenografted in RNU rat assessed as tumor growth inhibition at 122.4 mg/kg/day, ig administered for 14 days measured on day 15. It is filed as functional, organism-based. In general terms: Xenograft models place foreign cells or tissue in a host animal.
Data set [7] deals with Rattus norvegicus. The data set can be described thus: Toxicity in RNU rat xenografted with human MCF7 cells assessed as reduction in body weight at 122.4 mg/kg/day, ig administered for 14 days measured daily during compound dosing. In kind it is organism-based. The note with it: in vivo, po, 336 h.
The subject of data set [8] is MCF7. Nature of the data set: Antitumor activity against […] human MCF7 cells xenografted in RNU rat assessed as tumor growth inhibition at 128.8 mg/kg/day, ig administered for 14 days measured on day 15. In kind it is functional, organism-based.
Data set [9] concerns Rattus norvegicus. Nature of the data set: Toxicity in RNU rat xenografted with human MCF7 cells assessed as reduction in body weight at 128.8 mg/kg/day, ig administered for 14 days measured daily during compound dosing. It is filed as organism-based. The following applies: in vivo, po, 336 h.
Data set [10] relates to MCF7. The data set can be described thus: Antitumor activity against human […] human MCF7 cells xenografted in RNU rat assessed as tumor growth inhibition at 100 mg/kg/day, ig administered for 14 days measured on day 15. It is filed as functional, organism-based.

The source made the active and inactive calls. The calls are words filed in the database; no cut-off is given here. Where only a bound is given, the exact number is not on record here.

Cyclin-dependent kinase 4, sequence (P11802 whole entry): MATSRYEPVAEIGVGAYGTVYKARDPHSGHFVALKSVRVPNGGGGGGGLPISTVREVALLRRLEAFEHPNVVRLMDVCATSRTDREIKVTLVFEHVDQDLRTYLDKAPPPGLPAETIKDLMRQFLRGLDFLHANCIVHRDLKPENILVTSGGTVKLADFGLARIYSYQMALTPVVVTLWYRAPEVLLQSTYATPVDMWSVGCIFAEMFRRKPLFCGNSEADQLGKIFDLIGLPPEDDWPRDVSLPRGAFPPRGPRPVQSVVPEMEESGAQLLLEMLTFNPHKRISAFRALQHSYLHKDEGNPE

As usually defined, the IC50 is the concentration that inhibits the measured activity by half. Turning to `CCN1CCN(c2ccc(Nc3ncc4c(C)c(C(C)=O)c(=O)n(C5CCCC5)c4n3)nc2)CC1`, the IC50 in data set [1] was 542 nM; in data set [2], 25 nM; in [3] it was 34 nM; in [4] it was 487 nM; in [5], > 1000 nM.
`CCCOC(=O)N1CCN(c2ccc(Nc3ncc4c(C)c(C(C)=O)c(=O)n(C5CCCC5)c4n3)nc2)CC1`: the IC50 in [1] is > 2000 nM.
Turning to `CC(=O)c1c(C)c2cnc(Nc3ccc(N4CCN(C(=O)CNCCN)CC4)cn3)nc2n(C2CCCC2)c1=O`, the IC50 was 223 nM in data set [1]; 19 nM in data set [2]; 23 nM in [3]; 259 nM in data set [4]; 436 nM in data set [5]. In addition, the TGI entry in the data set on MCF7 [6] was “Active”. For the same molecule, in the data set with Rattus norvegicus [7], the Activity result is reported as “Non-Toxic”.
For the molecule `CCCC(=O)OCN1CCN(c2ccc(Nc3ncc4c(C)c(C(C)=O)c(=O)n(C5CCCC5)c4n3)nc2)CC1`, the IC50 in data set [1] was > 2000 nM.
`COCCCNCC(=O)N1CCN(c2ccc(Nc3ncc4c(C)c(C(C)=O)c(=O)n(C5CCCC5)c4n3)nc2)CC1`: the IC50 in data set [1] was 105 nM; in [2], 13 nM; in [3] it was 18 nM; in data set [4], 93 nM; in data set [5], 559 nM. The TGI result in the data set on MCF7 [8] is “Active”. Also, in the data set on Rattus norvegicus [9], the Activity result was “Non-Toxic”.
In the case of `CCCCOC(=O)N1CCN(c2ccc(Nc3ncc4c(C)c(C(C)=O)c(=O)n(C5CCCC5)c4n3)nc2)CC1`, the IC50 in data set [1] was > 2000 nM.
On to `CC(=O)OCOC(=O)N1CCN(c2ccc(Nc3ncc4c(C)c(C(C)=O)c(=O)n(C5CCCC5)c4n3)nc2)CC1`, for which the IC50 in [1] was 371 nM; in data set [2] it was 32 nM; in [3], 28 nM; in [4], 424 nM; in data set [5], > 1000 nM.
Regarding `CCCCCOC(=O)N1CCN(c2ccc(Nc3ncc4c(C)c(C(C)=O)c(=O)n(C5CCCC5)c4n3)nc2)CC1`, in [1], the IC50 was > 2000 nM.
On the same count and under the same terms, the same measure for `CC(=O)c1c(C)c2cnc(Nc3ccc(N4CCN(C(C)=O)CC4)cn3)nc2n(C2CCCC2)c1=O`: > 2000 nM.
Consider `CC(=O)c1c(C)c2cnc(Nc3ccc(N4CCNCC4)cn3)nc2n(C2CCCC2)c1=O` [PALBOCICLIB], for which the values for the IC50 in [1], in [4] and in data set [5] were 240 nM, 137 nM and 580 nM, respectively. Moreover, the TGI entry with MCF7 [10] was “Active”.
Regarding `CC(=O)c1c(C)c2cnc(Nc3ccc(N4CCN(CCC(=O)O)CC4)cn3)nc2n(C2CCCC2)c1=O`, in [1], the half-inhibitory concentration (IC50) is > 2000 nM.
Consider `CC(=O)c1c(C)c2cnc(Nc3ccc(N4CCN(CCO)CC4)cn3)nc2n(C2CCCC2)c1=O`, for which the IC50 in data set [1] was 689 nM.
The same measure, in the same setting: the same measure for `CC(=O)c1c(C)c2cnc(Nc3ccc(N4CCN(C(=O)CCC(=O)O)CC4)cn3)nc2n(C2CCCC2)c1=O`: > 2000 nM.
For the molecule `CCOC(=O)CCN1CCN(c2ccc(Nc3ncc4c(C)c(C(C)=O)c(=O)n(C5CCCC5)c4n3)nc2)CC1`, the concentration for half-maximal inhibition (IC50) in [1] was > 2000 nM.
The same measure, in the same setting: the same measure for `CC(=O)c1c(C)c2cnc(Nc3ccc(N4CCN(C(=O)CC#N)CC4)cn3)nc2n(C2CCCC2)c1=O`: 1520 nM.
As for `CCOC(=O)CN1CCN(c2ccc(Nc3ncc4c(C)c(C(C)=O)c(=O)n(C5CCCC5)c4n3)nc2)CC1`, the IC50 in [1] is > 2000 nM.
Regarding `COC(=O)N1CCN(c2ccc(Nc3ncc4c(C)c(C(C)=O)c(=O)n(C5CCCC5)c4n3)nc2)CC1`, the IC50 in data set [1] is > 2000 nM.
Consider `COCCN1CCN(c2ccc(Nc3ncc4c(C)c(C(C)=O)c(=O)n(C5CCCC5)c4n3)nc2)CC1`, for which, in data set [1], the IC50 worked out at 893 nM.
The same measure, in the same setting: the same measure for `CC(=O)c1c(C)c2cnc(Nc3ccc(N4CCN(C(=O)OCC(C)C)CC4)cn3)nc2n(C2CCCC2)c1=O`: > 2000 nM.
Still for that read-out and setting: the same measure for `CC(=O)c1c(C)c2cnc(Nc3ccc(N4CCN(C(=O)OC(C)C)CC4)cn3)nc2n(C2CCCC2)c1=O`: > 2000 nM.

(Values after ChEMBL document CHEMBL3865822, “New palbociclib analogues modified at the terminal piperazine ring and their anticancer activities” (Eur J Med Chem, 2016).)
